As usually defined, the EC50 is the midpoint of the concentration-response curve.

The test system of assay [1] is P2X2 all variants at V60, including the V60L mutation. The assay is described as follows: Site-saturation screen, fast kinetic assay in yeast, V60 variants. Format: cell-based, human. The following applies: 500 μM ATP f.c., ΔF/ΔT normalized to WT. The protocol: (§1) Figure 2 P2X2 SNP testing.A, homology model of P2X2 with the clinically implicated SNPs highlighted. V60 is highlighted in magenta and G353 is highlighted in dark blue. Lines indicate the positions of the mutations on each of the three monomers. B, zoomed view of the transmembrane region from the purple box in (A). V60 is magenta and G353 is dark blue. The structure is rotated 60° on the right image. C, screening data from site-saturation of the V60 residue in saturating ATP concentration (500 μM f.c.) using the fast kinetic assay. Signal onset values (ΔF/ΔT) are normalized to values from the WT receptor. […] Each of 2 to 3 replicates is represented as a single point. […]
(§2) GCaMP assays were performed as follows. […] Cells were loaded onto a black, clear bottom microplate and imaged on a FlexStation3 plate reader. […] Fluorescence was measured with an excitation at 485 nm, and emission 525 nm. […] For strains with mScarlet, fluorescence was read with excitation 570 nm/emission 610 nm. Slopes were calculated from the last 6 points of measurement and were normalized to the positive control samples. Any replicate in which the mScarlet value was measured to be over 2 standard deviations less than the mean for that set was discarded from further analysis.

For assay [2], the target named is T1, P2X2 G353 serine substitution (G353S) (Homo sapiens, UniProt Q9UBL9, G353S).
T1 construct: expressed in transfected cells; host or cells: S. cerevisiae BY4741 background
T1 sequence (Q9UBL9 whole entry G353S): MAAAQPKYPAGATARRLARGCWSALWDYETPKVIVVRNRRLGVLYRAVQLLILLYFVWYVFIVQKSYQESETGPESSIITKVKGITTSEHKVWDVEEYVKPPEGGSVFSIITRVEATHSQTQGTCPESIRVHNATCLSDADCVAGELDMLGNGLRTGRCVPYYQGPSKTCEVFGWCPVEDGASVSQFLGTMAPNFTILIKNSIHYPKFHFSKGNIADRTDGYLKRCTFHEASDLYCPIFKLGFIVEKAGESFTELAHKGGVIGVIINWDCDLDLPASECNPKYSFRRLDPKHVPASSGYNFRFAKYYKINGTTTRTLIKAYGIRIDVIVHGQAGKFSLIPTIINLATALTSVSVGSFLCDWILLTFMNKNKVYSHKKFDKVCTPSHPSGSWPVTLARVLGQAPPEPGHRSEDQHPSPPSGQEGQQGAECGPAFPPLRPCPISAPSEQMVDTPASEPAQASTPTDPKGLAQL
Kind of assay: Site-saturation screen, fast kinetic assay in yeast, G353 serine. Format: cell-based. The following applies: 500 μM ATP, ΔF/ΔT normalized to WT. The procedure: as §1, §2

In assay [3] the target is T2, P2X2 G353 histidine substitution (G353H) (Homo sapiens, UniProt Q9UBL9, G353H).
T2 construct: expressed in transfected cells; host or cells: S. cerevisiae BY4741 background
T2 sequence (Q9UBL9 whole entry G353H): as the sequence (Q9UBL9 whole entry G353S) above, with S353H counted along it
The assay is described as follows: Site-saturation screen, fast kinetic assay in yeast, G353 histidine. It counts as cell-based. The following applies: 500 μM ATP, ΔF/ΔT normalized to WT. The protocol: as §1, §2

The subject of assay [4] is P2X2 G298 substitutions. The assay is described as follows: Site-saturation screen of ligand-binding domain with ATP, G298 substitutions. Format: cell-based, human. The conditions noted are these: 500 μM ATP. From the text: (§3) The yeast P2X2 screening platform poses an opportunity to probe the structure-function of the ligand-binding domain in detail. The conserved P2X “NFR” motif at residues 300 to 302 is directly involved in bonding to the ATP triphosphate moiety ([41]), so we mutagenized residues at or near this motif (298–304), ultimately covering 133 variants (7 sites, 19 residues each). […] We compared our results to phylogenetic data based on a multiple sequence alignment (MSA) from a curated set of 419 related P2X homologs (Figs. 3B, and S5; Table S1).
(§4) Figure 3 Structure-function analysis of the ligand binding domain.A, heat map summarizing the screening data of ATP with seven site-saturation libraries surrounding the NFR-motif. B, sequence-logo plot of the mutagenized residues and percent identity scores as determined from MSA. C, homology model of P2X2 colored by sequence conservation as calculated from a multiple sequence alignment of 419 related P2X genes. Conservation is scored on a log scale where maroon is more conserved and blue is less conserved. D, ATP in the ligand-binding pocket of P2X2. […]
(§5) GCaMP assays were performed as follows. […] Cells were loaded onto a black, clear bottom microplate and imaged on a FlexStation3 plate reader. […] Fluorescence was measured with an excitation at 485 nm, and emission 525 nm. […] For strains with mScarlet, fluorescence was read with excitation 570 nm/emission 610 nm. […]

Assay [5] addresses T3, P2X2 Y299H (Homo sapiens, UniProt Q9UBL9, Y299H).
T3 construct: expressed in transfected cells; host or cells: S. cerevisiae BY4741 background
The assay is described as follows: Site-saturation screen of ligand-binding domain with ATP, Y299H. The conditions noted are these: 500 μM ATP, ± sd. It counts as cell-based.
Text: as §3, §4, §5

Assay [6] deals with T4, P2X2 N300T (Homo sapiens, UniProt Q9UBL9, N300T).
T4 construct: expressed in transfected cells; host or cells: S. cerevisiae BY4741 background
T4 sequence (Q9UBL9 whole entry N300T): as the sequence (Q9UBL9 whole entry G353S) above, with N300T, S353G counted along it
Kind of assay: Site-saturation screen of ligand-binding domain with ATP, N300T. Format: cell-based. The conditions noted are these: 500 μM ATP, ± sd.
Text: as §3, §4, §5

The target of assay [7] is T5, P2X2 R302 glutamine (R302Q) (Homo sapiens, UniProt Q9UBL9, R302Q).
T5 construct: expressed in transfected cells; host or cells: S. cerevisiae BY4741 background
T5 sequence (Q9UBL9 whole entry R302Q): as the sequence (Q9UBL9 whole entry G353S) above, with R302Q, S353G counted along it
Kind of assay: Site-saturation screen of ligand-binding domain with ATP, R302 glutamine. Format: cell-based. The conditions noted are these: 500 μM ATP, ± sd.
Text: as §3, §4, §5

Assay [8] deals with T6, P2X2 A304H (Homo sapiens, UniProt Q9UBL9, A304H).
T6 construct: expressed in transfected cells; host or cells: Saccharomyces cerevisiae BY4741 derivative, genome-integrated, galactose-inducible
T6 sequence (Q9UBL9 whole entry A304H): as the sequence (Q9UBL9 whole entry G353S) above, with A304H, S353G counted along it
The assay is described as follows: Site-saturation screen of ligand-binding domain with ATP, A304H. It counts as cell-based. The conditions noted are these: 500 μM ATP, ± sd.
Text: as §3, §4, §5

For assay [9], the target named is T7, P2X2 A304I (Homo sapiens, UniProt Q9UBL9, A304I).
T7 construct: expressed in transfected cells; host or cells: Saccharomyces cerevisiae BY4741 derivative, genome-integrated, galactose-inducible
T7 sequence (Q9UBL9 whole entry A304I): as the sequence (Q9UBL9 whole entry G353S) above, with A304I, S353G counted along it
Kind of assay: Site-saturation screen of ligand-binding domain with ATP, A304I. It counts as cell-based. The conditions noted are these: 500 μM ATP, ± sd.
Text: as §3, §4, §5

Assay [10] deals with T8, P2X2 A304Y (Homo sapiens, UniProt Q9UBL9, A304Y).
T8 construct: expressed in transfected cells; host or cells: Saccharomyces cerevisiae BY4741 derivative, genome-integrated, galactose-inducible
T8 sequence (Q9UBL9 whole entry A304Y): as the sequence (Q9UBL9 whole entry G353S) above, with A304Y, S353G counted along it
The assay is described as follows: Site-saturation screen of ligand-binding domain with ATP, A304Y. Format: cell-based. The conditions noted are these: 500 μM ATP, ± sd.
Text: as §3, §4, §5

In assay [11] the test system is P2X2. Further details: method as in PMID 10570044. The conditions noted are these: human glia; read-out: EC50, previously published value; cited from earlier work.
The target of assay [12] is T9, P2X2 A304W (Homo sapiens, UniProt Q9UBL9, A304W).
T9 construct: expressed in transfected cells; host or cells: S. cerevisiae BY4741 background
T9 sequence (Q9UBL9 1-471 A304W): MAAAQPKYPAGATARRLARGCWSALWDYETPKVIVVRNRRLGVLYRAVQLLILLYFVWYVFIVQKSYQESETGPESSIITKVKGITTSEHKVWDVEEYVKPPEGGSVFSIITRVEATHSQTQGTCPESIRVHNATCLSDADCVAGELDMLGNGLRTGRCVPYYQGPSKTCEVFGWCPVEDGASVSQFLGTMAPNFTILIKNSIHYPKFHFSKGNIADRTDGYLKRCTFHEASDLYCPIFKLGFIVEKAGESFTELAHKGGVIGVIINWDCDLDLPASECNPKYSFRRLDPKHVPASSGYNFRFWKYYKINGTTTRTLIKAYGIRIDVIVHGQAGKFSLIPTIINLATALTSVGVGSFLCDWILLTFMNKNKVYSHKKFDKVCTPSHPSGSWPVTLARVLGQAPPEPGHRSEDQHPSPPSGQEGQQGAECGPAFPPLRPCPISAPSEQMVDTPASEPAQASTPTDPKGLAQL
The assay is described as follows: Fast GCaMP-mScarletI assay in yeast, P2X2 A304W. Format: cell-based. The conditions noted are these: site-saturation screen, 500 μM ATP, ± sd.

T3 sequence (Q9UBL9 whole entry Y299H): as the sequence (Q9UBL9 whole entry G353S) above, with Y299H, S353G counted along it

Take `Nc1ncnc2c1ncn2[C@@H]1O[C@H](COP(=O)(O)OP(=O)(O)OP(=O)(O)O)[C@@H](O)[C@H]1O` [ATP]: in [1], the “response to ATP” value is on record as “unresponsive”. Further, the “signaling, % of WT activity” value in assay [2] stood at 95%; in [3], 32%. Besides, the “ligand gating activity compared to the negative control” value in [4] is listed as “none of the G298 substitutions exhibiting ligand gating activity”. Further, the “signal relative to WT” value in [5] is listed as 11 ± 5%. Besides, the “signal, % of WT signaling” value in [6] was determined as 51 ± 10%; in assay [7], 25 ± 28%; in assay [8] it was 27 ± 18%; in [9], 24 ± 17%; in assay [10] it was 52 ± 10%; in assay [12], 125 ± 47%. Further, in [11], the EC50 is 6 µM.
